Patent publication US20090053741A1 (priority 2005, published 2009)

What was measured:
DDAH = assay: ADMA binding to DDAH (initial studies; equilibrium dialysis and calorimetry)
Excerpt: Secondly, the researchers tried to improve the binding of ADMA to DDAH through mutagenesis. Three more mutations were generated in E114 and around this residue. These were E114D, E114D+A115G, L18H (residue in the loop) and P80A. […] Other mutations around the active site were also generated: L161F, G116A, G116V and G116T.
Thirdly, the researchers tried to calculate a Kd for ADMA of DDAH using nuclear magnetic resonance imaging using the C249S or H162A mutant. […] Fourthly, the researchers tried a fluorophore (fluoresceine 5 maleimide or acrylodan) approach to measure the Kd for ADMA. […] Finally, the researchers generated four mutations with tryptophan: V15W and D16W (in the loop) as well as F58W and E90W (close to the active site). These four residues move in the NMR spectrum when inhibitors bind to the protein.

nitric oxide synthase = conditions: cited from earlier work; for inhibition of NOS (in words): background statement
iNOS = biological target: T1, iNOS (Mus musculus, UniProt P29477); assay: [14C]L-NMMA binding to lysates of cytokine-stimulated J774 cells (iNOS lysate), filter assay; conditions: excess 1000-fold L-NMMA, FIG. 1, preliminary
T1 sequence (P29477 1-1144): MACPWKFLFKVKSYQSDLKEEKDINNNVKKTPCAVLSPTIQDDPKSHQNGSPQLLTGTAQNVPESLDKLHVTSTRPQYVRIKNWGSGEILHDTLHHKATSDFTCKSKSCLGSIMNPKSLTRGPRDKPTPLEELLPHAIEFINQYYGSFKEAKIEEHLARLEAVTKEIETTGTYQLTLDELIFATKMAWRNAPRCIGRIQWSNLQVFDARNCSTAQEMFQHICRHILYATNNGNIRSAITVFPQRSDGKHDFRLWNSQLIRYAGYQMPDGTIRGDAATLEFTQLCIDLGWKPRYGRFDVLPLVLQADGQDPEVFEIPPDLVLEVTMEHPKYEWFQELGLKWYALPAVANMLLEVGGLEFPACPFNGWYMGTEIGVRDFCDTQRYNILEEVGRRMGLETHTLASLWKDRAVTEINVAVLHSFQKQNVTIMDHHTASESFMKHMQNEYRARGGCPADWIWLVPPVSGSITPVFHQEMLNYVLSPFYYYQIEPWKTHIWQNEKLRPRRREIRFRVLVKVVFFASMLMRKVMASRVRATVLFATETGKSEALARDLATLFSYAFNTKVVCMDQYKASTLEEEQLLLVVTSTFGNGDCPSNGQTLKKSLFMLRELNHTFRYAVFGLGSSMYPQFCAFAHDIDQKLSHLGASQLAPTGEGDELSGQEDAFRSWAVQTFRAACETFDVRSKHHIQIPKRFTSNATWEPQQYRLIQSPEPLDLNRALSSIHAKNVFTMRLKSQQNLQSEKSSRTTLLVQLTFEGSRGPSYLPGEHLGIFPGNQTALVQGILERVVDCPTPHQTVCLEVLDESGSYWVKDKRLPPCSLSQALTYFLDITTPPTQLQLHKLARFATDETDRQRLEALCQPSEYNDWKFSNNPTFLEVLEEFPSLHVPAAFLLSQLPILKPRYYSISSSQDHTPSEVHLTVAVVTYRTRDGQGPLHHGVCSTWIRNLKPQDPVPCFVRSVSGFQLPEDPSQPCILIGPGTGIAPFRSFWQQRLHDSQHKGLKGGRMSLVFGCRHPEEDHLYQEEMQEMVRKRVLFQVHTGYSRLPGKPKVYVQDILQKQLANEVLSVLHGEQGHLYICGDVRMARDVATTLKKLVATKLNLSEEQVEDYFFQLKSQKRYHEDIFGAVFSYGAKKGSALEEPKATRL
Experimental: A=J774 stimulated, B=J774 stimulated+L-NMMA, C=control and D=control+L-NMMA.
Macrophages (J774 cells) were stimulated with a cytokine cocktail (LPS/IFN/TNF) for 24 h, to induce iNOS expression, and cell lysates were collected. […] Low molecular weight molecules were removed from lysates using 30000 MW cut-off filters. Lysates were incubated on 3000 MW filters with [^14C]L-NMMA for 15 min ([…] L-NMMA), washed 3× with cold TRIS buffer and filters counted.

[1] = biological target: T2, bsNOS fragment (bacillus subtilis nitric oxide synthase oxygenase domain) (Bacillus subtilis, UniProt O34453); assay: [14C]L-NMMA binding to bsNOS fragment on 30000 MW cut off filters; conditions: 1000-fold excess unlabelled L-NMMA, FIG. 2, preliminary
T2 construct: made in house
T2 sequence (O34453 other isoform, or with tags, fused parts or gaps with the stated changes): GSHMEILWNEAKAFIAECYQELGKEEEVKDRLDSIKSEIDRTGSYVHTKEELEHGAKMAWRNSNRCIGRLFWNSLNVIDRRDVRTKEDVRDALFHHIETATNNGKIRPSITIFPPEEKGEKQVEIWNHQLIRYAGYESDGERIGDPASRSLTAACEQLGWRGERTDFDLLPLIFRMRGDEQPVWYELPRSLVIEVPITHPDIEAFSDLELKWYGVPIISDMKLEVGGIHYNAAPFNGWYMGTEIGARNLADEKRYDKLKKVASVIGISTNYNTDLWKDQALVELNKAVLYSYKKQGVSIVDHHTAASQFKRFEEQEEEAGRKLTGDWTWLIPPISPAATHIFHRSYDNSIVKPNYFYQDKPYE
Experimental: (§1) A=Control and B=excess L-NMMA.
A bacillus subtilis nitric oxide synthase oxygenase domain (“fragment”) was PCR amplified from genomic DNA with Nde1 and BamH1 sites added at the 5′ and 3′ ends respectively and cloned into pET15b vector. The bsNOS fragment corresponded to SEQ ID NO: 2 and was purified as previously described (Pant et al., Biochemistry; 2002; 41:11071-11079).
[^14C]L-NMMA (3.75 nmol) was incubated with the bsNOS fragment ([…]) on 30000 MW cut off filters in the presence and absence (Control) of 1000-fold excess unlabelled L-NMMA.

[2] = biological target: T2, bsNOS fragment (bacillus subtilis nitric oxide synthase oxygenase domain); assay: bsNOS binding to [14C]L-NMMA, PVDF filters with rapid washes; conditions: L-NMMA 1 mM, FIG. 3
Experimental: as §1
A modified method previously described for binding [3H]nitroarginine to mammalian NOS was used to ensure rapid washes of the bsNOS fragment complexes and ligand to reduce time for dissociation (Liu Q and Gross S S, Methods Enzymol. 1996; 268:311-24). [^14C]L-NMMA ([…] −20000 counts total) was incubated with the bsNOS fragment ([…]) in assay buffer containing: 50 mM Tris pH 7.6; 50 uM BH4, 0.5 mM DTT. Reactants were incubated for 15 min at room temperature and NOS-bound [^14C]L-NMMA was separated from free [^14C]L-NMMA using PVDF filters and 3×1 ml rapid washes in cold Tris pH 7.6. Background was determined by the addition of 1 mM L-NMMA to bsNOS in assay buffer. Filters were added to 5 ml scintillation cocktail and counted in scintillation counter (Beckmann).

For `CN(C)C(=N)NCCCC(N)C(=O)O` (stereo not drawn) [ADMA, asymmetric dimethylarginine], the “saturation of DDAH in calorimetry experiments” value (DDAH; inactive mutations C249S, H162A, E114Q, very high concentrations of ADMA (10 mM)) is given as “saturation was never reached”, the “concentrations necessary to get binding to DDAH” value (DDAH; initial studies) is given as “millimolar concentrations” and the “inhibition of NOS (in words)” value (nitric oxide synthase) is given as “equipotent”.

In the case of `CNC(=N)NCCC[C@H](N)C(=O)O` [L-NMMA, N^G-monomethyl-L-arginine], the “competition of [14C]L-NMMA binding by unlabelled ligand” value (iNOS) is reported as “competed out”, the “competition of [14C]L-NMMA binding by unlabelled ligand” value [1] is reported as “competed out” and the “[14C]L-NMMA binding in the presence of unlabelled ligand” value [2] is reported as “reduced to background”. For the same compound, the “inhibition of NOS (in words)” value (nitric oxide synthase) was “equipotent”.

In the case of `N=C(N)NCCC[C@H](N)C(=O)O` [arginine], the Km (nitric oxide synthase; nitric oxide synthase, the 3 enzymes, read-out: Km for arginine) is listed as 7 to 19 µM.

For `CN=C(NC)NCCC[C@H](N)C(=O)O` [SDMA, symmetric dimethylarginine], the “inhibition of NOS (in words)” value (nitric oxide synthase) is listed as “does not inhibit NOS”.
